Assay results as given in patent US9872875B2, “Component and method for treating viral disease” (Institut Pasteur of Shanghai, Chinese Academy of Sciences, priority 2012, dated 2018).
Read-outs that look alike come from different tables or passages of the source.

Key:
[1] = system: EV71; experiment: Inhibition of EV71 replication in RD cells at 0.1, 1, 10 and 100 μM (CPE, crystal violet); assay type: cell-based, Enterovirus 71; design: key to Inhibition of EV71 replication: −: no activity
Experimental: Inhibitory effect of each P2X receptor antagonists and agonists on EV71 replication was measured at 0.1, 1, 10, and 100 μM. Specific procedures refer to “1” of Example 1. after infection, however, cells need to be incubated for 3˜4 days, stained with crystal violet, and observed under optical microscope to determine whether or not CPE (cytopathic effect) was present. In addition, the effect of compounds at each concentration on cytotoxicity to RD cells was determined. After culturing RD cells in various concentrations of compounds for 3˜4 days, stained with crystal violet, and observed under optical microscope to observe whether or not cell layer was damaged. Compounds capable of protecting cells from infection without damage of healthy cell layer can inhibit EV71 replication in RD cells.

[2] = molecular target: T1, P2X1 receptor (Homo sapiens, UniProt P51575); design: key: −: no activity; +: activating concentration >10 μM; ++: activating concentration 1~10 μM; +++: activating concentration <1 μM; conditions: cited from earlier work
T1 sequence (P51575 1-399): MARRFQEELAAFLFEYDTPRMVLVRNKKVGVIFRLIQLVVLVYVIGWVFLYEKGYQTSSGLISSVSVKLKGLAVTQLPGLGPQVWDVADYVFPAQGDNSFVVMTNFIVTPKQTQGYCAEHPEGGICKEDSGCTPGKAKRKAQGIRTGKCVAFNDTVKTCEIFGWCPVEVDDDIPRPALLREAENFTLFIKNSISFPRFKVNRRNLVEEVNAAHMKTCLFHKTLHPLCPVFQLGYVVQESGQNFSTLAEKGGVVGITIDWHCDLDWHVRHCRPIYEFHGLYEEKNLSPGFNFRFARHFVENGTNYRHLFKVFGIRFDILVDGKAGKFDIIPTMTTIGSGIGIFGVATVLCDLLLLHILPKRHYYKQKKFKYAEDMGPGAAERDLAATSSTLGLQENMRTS

[3] = molecular target: T2, P2X2 receptor (Homo sapiens, UniProt Q9UBL9); design: key: −: no activity; +: activating concentration >10 μM; ++: activating concentration 1~10 μM; +++: activating concentration <1 μM; conditions: cited from earlier work
T2 sequence (Q9UBL9 1-471): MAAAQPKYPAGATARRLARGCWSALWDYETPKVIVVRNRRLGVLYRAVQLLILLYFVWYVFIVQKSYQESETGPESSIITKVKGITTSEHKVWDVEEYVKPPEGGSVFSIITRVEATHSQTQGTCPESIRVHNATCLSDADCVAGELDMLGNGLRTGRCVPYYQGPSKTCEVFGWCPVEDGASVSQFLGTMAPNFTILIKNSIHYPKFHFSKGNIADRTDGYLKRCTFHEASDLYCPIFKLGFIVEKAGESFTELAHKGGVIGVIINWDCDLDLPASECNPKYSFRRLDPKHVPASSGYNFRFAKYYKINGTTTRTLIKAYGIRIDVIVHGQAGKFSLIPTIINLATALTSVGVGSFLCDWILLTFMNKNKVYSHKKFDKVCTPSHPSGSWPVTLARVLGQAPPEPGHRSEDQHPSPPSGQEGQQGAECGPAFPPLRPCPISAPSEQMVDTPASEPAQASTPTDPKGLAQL

[4] = molecular target: T3, P2X3 receptor (Homo sapiens, UniProt P56373); conditions: cited from earlier work
T3 sequence (P56373 1-397): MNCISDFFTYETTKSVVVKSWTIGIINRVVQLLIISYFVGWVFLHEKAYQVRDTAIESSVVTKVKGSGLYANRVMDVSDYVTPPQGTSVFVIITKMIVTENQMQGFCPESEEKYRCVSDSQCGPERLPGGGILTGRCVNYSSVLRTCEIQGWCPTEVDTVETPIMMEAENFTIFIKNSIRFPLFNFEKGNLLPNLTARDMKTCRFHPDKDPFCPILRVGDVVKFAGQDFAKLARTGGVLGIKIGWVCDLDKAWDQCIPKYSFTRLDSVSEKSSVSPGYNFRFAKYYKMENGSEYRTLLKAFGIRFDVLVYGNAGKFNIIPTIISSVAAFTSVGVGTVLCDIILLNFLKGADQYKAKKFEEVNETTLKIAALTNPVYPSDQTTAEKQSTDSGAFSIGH

[5] = molecular target: T4, P2X4 receptor (Homo sapiens, UniProt Q99571); conditions: cited from earlier work
T4 sequence (Q99571 1-388): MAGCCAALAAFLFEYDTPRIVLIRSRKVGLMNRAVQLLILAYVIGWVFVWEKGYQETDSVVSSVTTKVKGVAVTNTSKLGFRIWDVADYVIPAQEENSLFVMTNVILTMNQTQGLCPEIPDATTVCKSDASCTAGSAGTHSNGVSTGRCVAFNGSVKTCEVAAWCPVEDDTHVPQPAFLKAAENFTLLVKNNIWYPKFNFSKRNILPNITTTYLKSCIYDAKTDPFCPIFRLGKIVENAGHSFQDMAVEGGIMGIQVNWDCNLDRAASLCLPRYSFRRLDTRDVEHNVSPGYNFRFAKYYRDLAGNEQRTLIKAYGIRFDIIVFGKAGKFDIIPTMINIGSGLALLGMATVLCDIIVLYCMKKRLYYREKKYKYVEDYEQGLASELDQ

[6] = molecular target: T5, P2X7 receptor (Homo sapiens, UniProt Q99572); conditions: cited from earlier work
T5 sequence (Q99572 1-595): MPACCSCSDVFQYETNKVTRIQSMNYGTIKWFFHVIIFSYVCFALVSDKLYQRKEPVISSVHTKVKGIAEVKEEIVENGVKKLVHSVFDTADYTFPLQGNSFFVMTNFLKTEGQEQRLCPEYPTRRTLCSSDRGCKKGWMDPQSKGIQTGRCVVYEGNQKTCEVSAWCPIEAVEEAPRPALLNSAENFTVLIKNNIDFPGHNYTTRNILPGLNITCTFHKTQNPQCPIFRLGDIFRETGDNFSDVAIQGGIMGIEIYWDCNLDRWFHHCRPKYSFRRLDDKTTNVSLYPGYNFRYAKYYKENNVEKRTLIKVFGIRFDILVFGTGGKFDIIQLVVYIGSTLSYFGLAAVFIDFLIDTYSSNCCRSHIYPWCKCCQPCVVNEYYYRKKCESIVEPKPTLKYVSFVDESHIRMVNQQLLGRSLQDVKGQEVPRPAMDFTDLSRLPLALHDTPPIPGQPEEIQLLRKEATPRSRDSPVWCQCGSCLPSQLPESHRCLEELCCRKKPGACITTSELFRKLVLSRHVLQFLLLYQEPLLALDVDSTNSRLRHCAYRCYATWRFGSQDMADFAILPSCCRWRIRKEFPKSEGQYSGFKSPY

[7] = system: EV71; experiment: Effects of other antagonists and agonists on EV71 (Table 9); assay type: cell-based, Enterovirus 71; design: key: “NO” indicates there is negative
[8] = molecular target: P2X2/3 (Homo sapiens, UniProt P56373+Q9UBL9); conditions: Table 9, antagonists; cited from earlier work
[9] = molecular target: P2X5 receptor (Homo sapiens, UniProt Q93086); conditions: cited from earlier work
[10] = system: EV71 FY-23; experiment: EV71 infection of adult rhesus monkeys: blood viral load and body temperature; assay type: in vivo, rhesus monkey (Macaca); conditions: 50 mg/kg suramin i.v.
Text: 10 adult rhesus monkeys, which were detected negative for EV71 antibody (rhesus monkey (Macaca), Source: Institute of Medical Biology, Chinese Academy of Medical Sciences, Experimental animal use license number: SYXK (Yunnan) 2010-0009, Certification unit: Yunnan Provincial Science and Technology Agency), were randomly divided into two groups, namely: five in control group (aged about 4 years old, weighing about 5.3 kg, injected with physiological saline), 5 in treatment group (aged about 4.6 years old, weighs about 5.44 kg, injected with 50 mg/kg suramin). Multiple intravenous injections of suramin (50 mg/kg) were used. […] Specific experimental procedure is as follows:
Then, drug was administered intravenously at a dose (50 mg/kg suramin or physiological saline).
Intravenous viral challenge was performed with 4.5 lgCCID50 EV71 FY-23.
Whole blood RNA extraction: obtained 0.2 ml blood, added 0.8 ml TRNzol-A^+, after mixing, placed the well at room temperature for 10 min; added 0.2 ml chloroform, tightened cover lid, vigorously shaking for 15 sec, placed at room temperature for 5 min, centrifuged at 12500 rpm, 4° C., 20 min, 0.4 ml of aqueous phase was transferred to another fresh tube, equal volume of isopropanol was added, mixed, placed at room temperature for 30 min; centrifuged at 12500 rpm, 4° C., 20 min, supernatant was discarded, 1 ml of 75% ethanol was added to wash precipitates, centrifuged at 12500 rpm, 4° C., 30 min. Supernatant discarded, placed at room temperature for 30 min, RNA dried, 20 μl RNase-free ddH2O added, and RNA fully dissolved. Viral load was determined by measurement method as follows:
1) Standard dilutions: obtaining standards (performed according to TaKaRa MiniBEST Viral RNA/DNA extraction Kit Ver 3.0 instructions), 10 μl standards were obtained, 10-fold serial dilutions 10^6, 10^5, 10^4, 10^3, 10^2, 10^1, 10^0.
2) Primer sequences (Taqman probe method):
3) Preparing RT-PCR reaction solution (reaction solutions were prepared on ice):
4) Performing Real Time One Step RT-PCR.

P2X5 receptor, sequence (Q93086 whole entry): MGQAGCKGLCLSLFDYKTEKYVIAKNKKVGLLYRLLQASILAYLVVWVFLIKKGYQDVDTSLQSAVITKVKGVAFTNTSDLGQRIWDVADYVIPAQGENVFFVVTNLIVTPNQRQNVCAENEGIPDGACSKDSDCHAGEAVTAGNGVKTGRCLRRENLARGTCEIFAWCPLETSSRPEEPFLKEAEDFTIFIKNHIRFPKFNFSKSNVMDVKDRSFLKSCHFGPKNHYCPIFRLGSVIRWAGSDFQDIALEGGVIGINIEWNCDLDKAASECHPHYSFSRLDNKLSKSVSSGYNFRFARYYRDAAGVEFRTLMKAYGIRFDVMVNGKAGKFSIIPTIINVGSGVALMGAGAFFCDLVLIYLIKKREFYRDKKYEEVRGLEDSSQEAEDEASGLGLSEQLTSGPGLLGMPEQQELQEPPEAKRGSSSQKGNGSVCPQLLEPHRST

Compound	EV71 Log10 reduction [7]	Inhibition of EV71 replication ([1]; Table 8, agonists)	P2X receptors 1 ([2]; Table 8, agonists)	P2X receptors 2 ([3]; Table 8, agonists)	P2X receptors 3 ([4]; Table 8, agonists)	P2X receptors 4 ([5]; Table 8, agonists)	P2X receptors 5 ([9]; Table 8, agonists)	P2X receptors 5 ([9]; Table 9, agonists)	other results
O=C(Nc1ccc(C(=O)Nc2ccc(C(=O)Nc3ccc(S(=O)(=O)O)c4cc(S(=O)(=O)O)cc(S(=O)(=O)O)c34)cc2)cc1)Nc1ccc(C(=O)Nc2ccc(C(=O)Nc3ccc(S(=O)(=O)O)c4cc(S(=O)(=O)O)cc(S(=O)(=O)O)c34)cc2)cc1 [NF279, 8,8′-(carbonylbis(imino-4,1-phenylenecarbonylimino-4,1-phenylenecarbonylimino))bis(1,3,5-naphthalenetrisulfonic acid)]									inhibition of EV71 replication (statement in words) [1]: can also inhibit EV71 replication; Inhibition of EV71 replication ([1]; Table 8, antagonists): + (+: inhibitory concentration >300 nM); P2X receptors 1 ([2]; Table 8, antagonists): +++ (+++: inhibitory concentration <10 nM); P2X receptors 2 ([3]; Table 8, antagonists): + (+: inhibitory concentration >300 nM); P2X receptors 3 ([4]; Table 8, antagonists): + (+: inhibitory concentration >300 nM); P2X receptors 4 ([5]; Table 8, antagonists): −; P2X receptors 7 ([6]; Table 8, antagonists): + (+: inhibitory concentration >300 nM)
COc1cc(Cc2cnc(N)nc2N)c(C(C)C)cc1OC [RO-3]	NO								P2X receptors 3 ([4]; Table 9, antagonists): ✓ ✓ (✓ ✓ activating concentration 10 nM-300 nM); Heteromultimer [8]: ✓ P2X2/3 (✓ activating concentration >300 nM)
O=c1ccn([C@@H]2O[C@H](COP(=O)(O)OP(=O)(O)OP(=O)(O)O)[C@@H](O)[C@H]2O)c(=O)[nH]1 [UTP, uridine triphosphate]	NO	−	−	−	−	−	+ (+: activating concentration >10 μM)	✓ (✓ activating concentration >10 μM)	
Cc1ccc(C(=O)Nc2ccc(S(=O)(=O)O)c3cc(S(=O)(=O)O)cc(S(=O)(=O)O)c23)cc1NC(=O)c1cccc(NC(=O)Nc2cccc(C(=O)Nc3cc(C(=O)Nc4ccc(S(=O)(=O)O)c5cc(S(=O)(=O)O)cc(S(=O)(=O)O)c45)ccc3C)c2)c1 [suramin, Suramin]									viral load compared with control group ([10]; rhesus monkeys): significantly lower; blood viral load of drug treatment group (average) ([10]; 4th, 7th and 13th days after viral challenge, control peak 1-1.5×10^3 copies/ml): 1.5×10^1 copies/ml; body temperature after infection ([10]; control group showed a rise 1 day after infection): essentially maintained body temperatures within normal range
Ivermectine	NO	−				++ (++: activating concentration 1~10 μM)			P2X receptors 4 ([5]; Table 9, modulator, no key printed for this class): ✓ ✓ ✓
bzATP	NO	−	+++ (+++: activating concentration <1 μM)	++ (++: activating concentration 1~10 μM)	+ (+: activating concentration >10 μM)	+++ (+++: activating concentration <1 μM)	++ (++: activating concentration 1~10 μM)	✓ ✓ (✓ ✓ activating concentration 1-10 μM)	P2X receptors 1 ([2]; Table 9, agonists): ✓ ✓ ✓ (✓ ✓ ✓ activating concentration <1 μM); P2X receptors 2 ([3]; Table 9, agonists): ✓ ✓ (✓ ✓ activating concentration 1-10 μM); P2X receptors 3 ([4]; Table 9, agonists): ✓ (✓ activating concentration >10 μM); P2X receptors 4 ([5]; Table 9, agonists): ✓ ✓ ✓ (✓ ✓ ✓ activating concentration <1 μM); P2X receptors 7 ([6]; Table 8, agonists): ++ (++: activating concentration 1~10 μM); P2X receptors 7 ([6]; Table 9, agonists): ✓ ✓ ✓ (✓ ✓ ✓ activating concentration <1 μM)
